Assay results published in ChEMBL document CHEMBL1128412, “Mechanism-based development of new antimalarials: synthesis of derivatives of artemisinin attached to iron chelators” (J Med Chem, 1995).

Legend:
Plasmodium falciparum [1] = experiment: In vitro antimalarial activity against Plasmodium falciparum; type: functional, organism-based
Plasmodium falciparum [2] = experiment: In vitro antimalarial activity against Plasmodium falciparum in 20 mM FeCl3; type: functional, organism-based

SMILES | IC50 (Plasmodium falciparum [1]) [µM] | IC50 (Plasmodium falciparum [2]) [nM]
C[C@H]1[C@@H](OCCCOc2c(O)cccc2O)O[C@@H]2O[C@@]3(C)CC[C@H]4[C@H](C)CC[C@@H]1[C@@]24OO3 | 0.00767 | 9.21
C[C@H]1[C@@H](OCCCBr)O[C@@H]2O[C@@]3(C)CC[C@H]4[C@H](C)CC[C@@H]1[C@@]24OO3 | 0.00368 | 
C[C@H]1[C@@H](OCCCONC(=O)c2ccccc2)O[C@@H]2O[C@@]3(C)CC[C@H]4[C@H](C)CC[C@@H]1[C@@]24OO3 | 0.0236 | 32.9
C[C@H]1[C@@H](OCCCOc2coc(CO)cc2=O)O[C@@H]2O[C@@]3(C)CC[C@H]4[C@H](C)CC[C@@H]1[C@@]24OO3 | 0.00955 | 16.8
CCN(CC)C(=S)SCCCO[C@H]1O[C@@H]2O[C@@]3(C)CC[C@H]4[C@H](C)CC[C@@H]([C@H]1C)[C@@]24OO3 | 0.00765 | 
COC(=O)/C=C/c1ccc(OCCCO[C@H]2O[C@@H]3O[C@@]4(C)CC[C@H]5[C@H](C)CC[C@@H]([C@H]2C)[C@@]35OO4)c(O)c1 | 0.00478 | 3.38
C[C@H]1[C@@H](OCCC2Oc3cccc(O)c3O2)O[C@@H]2O[C@@]3(C)CC[C@H]4[C@H](C)CC[C@@H]1[C@@]24OO3 (some centres undefined) | 0.00664 | 
C[C@H]1[C@@H](OCCC2ON2C(=O)c2ccccc2O)O[C@@H]2O[C@@]3(C)CC[C@H]4[C@H](C)CC[C@@H]1[C@@]24OO3 (some centres undefined) | 0.00425 | 
C[C@H]1[C@@H](OCCCONC(=O)c2ccccc2O)O[C@@H]2O[C@@]3(C)CC[C@H]4[C@H](C)CC[C@@H]1[C@@]24OO3 | 0.0525 | 48.7
C[C@H]1[C@@H](OCCCOc2cccc(O)c2O)O[C@@H]2O[C@@]3(C)CC[C@H]4[C@H](C)CC[C@@H]1[C@@]24OO3 | 0.0127 | 
C[C@@H]1CC[C@H]2[C@@H](C)C(=O)O[C@@H]3O[C@@]4(C)CC[C@@H]1[C@]32OO4 [ARTEMISININ] | 0.00582 | 5.41
C[C@H]1[C@@H](O)O[C@@H]2O[C@@]3(C)CC[C@H]4[C@H](C)CC[C@@H]1[C@@]24OO3 [ARTENIMOL] | 0.0011 | 
O=C(NO)c1ccccc1 [BENZOHYDROXAMATE] | 17.6 | 
O=C(O)/C=C/c1ccc(O)c(O)c1 [CAFFEIC ACID] | 122 | 
O=c1cc(CO)occ1O [KOJIC ACID] | 1580 | 
COC(=O)/C=C/c1ccc(O)c(O)c1 [METHYLCAFFEATE] | 46.5 | 
Oc1cccc(O)c1O [PYROGALLOL] | 5.66 | 
O=C(NO)c1ccccc1O [SALICYLHYDROXAMIC ACID] | 107 | 
